# Source: PubChem BioAssay AID1963964 (Molecular Pharmacology Branch, DTP, NCI, 2024)
# Tested on: 997726-040-R-J2-PDC tumor spheroids, viability
# Test: Anticancer human tumor 997726-040-R-J2-PDC patient-derived squamous cell lung carcinoma cell line growth inhibition [PI3K]
# Details: spheroids with HUVEC and MSC; for IC50: curve of first compound; for viability, T/C: stronger effect = lower value
# How it was run: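 Three cell types, namely tumor cells, endothelial cells and mesenchymal stem cells, formed each spheroid. Combinations with four PI3K inhibitors were screened at clinically achievable concentrations decreasing by half-log, and spheroid viability was recorded.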
# [1] = second compound 0.0316 µM, first compound 0.0316 µM
# [2] = second compound 0.0316 µM, first compound 0.1 µM
# [3] = second compound 0.0316 µM, first compound 0.316 µM
# [4] = second compound 0.0316 µM, first compound 1 µM
# [5] = second compound 0.0316 µM, first compound 3.16 µM
# [6] = second compound 0.0316 µM, first compound 10 µM
# [7] = second compound 0.1 µM, first compound 0.0316 µM
# [8] = second compound 0.1 µM, first compound 0.1 µM
# [9] = second compound 0.1 µM, first compound 0.316 µM
# [10] = second compound 0.1 µM, first compound 1 µM
# [11] = second compound 0.1 µM, first compound 3.16 µM
# [12] = second compound 0.1 µM, first compound 10 µM
# [13] = second compound 0.316 µM, first compound 0.0316 µM
# [14] = second compound 0.316 µM, first compound 0.1 µM
# [15] = second compound 0.316 µM, first compound 0.316 µM
# [16] = second compound 0.316 µM, first compound 1 µM
# [17] = second compound 0.316 µM, first compound 3.16 µM
# [18] = second compound 0.316 µM, first compound 10 µM
# [19] = second compound 1 µM, first compound 0.0316 µM
# [20] = second compound 1 µM, first compound 0.1 µM
# [21] = second compound 1 µM, first compound 0.316 µM
# [22] = second compound 1 µM, first compound 1 µM
# [23] = second compound 1 µM, first compound 3.16 µM
# [24] = second compound 1 µM, first compound 10 µM
# 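Note: spheroids exposed to compounds for seven days before readout.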
smiles,measurement,setting,value
C=CC(=O)N1CCN(c2nc(=O)n(-c3c(C)ccnc3C(C)C)c3nc(-c4c(O)cccc4F)c(F)cc23)C(C)C1 (centres undefined) + CC(Nc1ncnc2nc[nH]c12)c1cc2cccc(Cl)c2c(=O)n1-c1ccccc1,IC50,second compound 0.0316 µM,> 10 µM
same,IC50,second compound 0.1 µM,> 10 µM
same,IC50,second compound 0.316 µM,> 10 µM
same,IC50,second compound 1 µM,> 10 µM
same,IC50,second compound 3.16 µM,> 10 µM
same,IC50,second compound 10 µM,> 10 µM
same,"viability, T/C",[1],91.5%
same,"viability, T/C",[2],112%
same,"viability, T/C",[3],107%
same,"viability, T/C",[4],106%
same,"viability, T/C",[5],123%
same,"viability, T/C",[6],130%
same,"viability, T/C",[7],108%
same,"viability, T/C",[8],103%
same,"viability, T/C",[9],101%
same,"viability, T/C",[10],104%
same,"viability, T/C",[11],113%
same,"viability, T/C",[12],126%
same,"viability, T/C",[13],104%
same,"viability, T/C",[14],95%
same,"viability, T/C",[15],104%
same,"viability, T/C",[16],102%
same,"viability, T/C",[17],133%
same,"viability, T/C",[18],113%
same,"viability, T/C",[19],86.7%
same,"viability, T/C",[20],86.4%
same,"viability, T/C",[21],92.7%
same,"viability, T/C",[22],98.4%
same,"viability, T/C",[23],120%
same,"viability, T/C",[24],109%
same,"viability, T/C","second compound 3.16 µM, first compound 0.0316 µM",72.2%
same,"viability, T/C","second compound 3.16 µM, first compound 0.1 µM",75.4%
same,"viability, T/C","second compound 3.16 µM, first compound 0.316 µM",78.9%
same,"viability, T/C","second compound 3.16 µM, first compound 1 µM",85.3%
same,"viability, T/C","second compound 3.16 µM, first compound 3.16 µM",96.2%
same,"viability, T/C","second compound 3.16 µM, first compound 10 µM",95.6%
same,"viability, T/C","second compound 10 µM, first compound 0.0316 µM",58.1%
same,"viability, T/C","second compound 10 µM, first compound 0.1 µM",51%
same,"viability, T/C","second compound 10 µM, first compound 0.316 µM",60.8%
same,"viability, T/C","second compound 10 µM, first compound 1 µM",55.8%
same,"viability, T/C","second compound 10 µM, first compound 3.16 µM",64.7%
same,"viability, T/C","second compound 10 µM, first compound 10 µM",68.8%
C#Cc1c(F)ccc2cc(O)cc(-c3ncc4c(N5CC6CCC(C5)N6)nc(OCC56CCCN5CC(F)C6)nc4c3F)c12 (centres undefined) + CC(Nc1ccc2c(c1)OCCn1cc(N3C(=O)OCC3C(F)F)nc1-2)C(N)=O,IC50,second compound 0.00316 µM,> 10 µM
same,IC50,second compound 0.01 µM,> 10 µM
same,IC50,second compound 0.0316 µM,5.35 µM
same,IC50,second compound 0.1 µM,< 0.0316 µM
same,IC50,second compound 0.316 µM,< 0.0316 µM
same,IC50,second compound 1 µM,< 0.0316 µM
same,"viability, T/C","second compound 0.00316 µM, first compound 0.0316 µM",89.2%
same,"viability, T/C","second compound 0.00316 µM, first compound 0.1 µM",97.8%
same,"viability, T/C","second compound 0.00316 µM, first compound 0.316 µM",81.8%
same,"viability, T/C","second compound 0.00316 µM, first compound 1 µM",83.5%
same,"viability, T/C","second compound 0.00316 µM, first compound 3.16 µM",75.3%
same,"viability, T/C","second compound 0.00316 µM, first compound 10 µM",77.4%
same,"viability, T/C","second compound 0.01 µM, first compound 0.0316 µM",79%
same,"viability, T/C","second compound 0.01 µM, first compound 0.1 µM",83%
same,"viability, T/C","second compound 0.01 µM, first compound 0.316 µM",79.2%
same,"viability, T/C","second compound 0.01 µM, first compound 1 µM",75%
same,"viability, T/C","second compound 0.01 µM, first compound 3.16 µM",68.5%
same,"viability, T/C","second compound 0.01 µM, first compound 10 µM",55%
same,"viability, T/C",[1],62.4%
same,"viability, T/C",[2],65%
same,"viability, T/C",[3],55.3%
same,"viability, T/C",[4],60%
same,"viability, T/C",[5],55.6%
same,"viability, T/C",[6],44.2%
same,"viability, T/C",[7],45.8%
same,"viability, T/C",[8],43.4%
same,"viability, T/C",[9],45.5%
same,"viability, T/C",[10],44.9%
same,"viability, T/C",[11],38.5%
same,"viability, T/C",[12],52.9%
same,"viability, T/C",[13],35.8%
same,"viability, T/C",[14],36.1%
same,"viability, T/C",[15],31.9%
same,"viability, T/C",[16],31.5%
same,"viability, T/C",[17],25.6%
same,"viability, T/C",[18],24.8%
same,"viability, T/C",[19],26.8%
same,"viability, T/C",[20],30.1%
same,"viability, T/C",[21],27.2%
same,"viability, T/C",[22],26.6%
same,"viability, T/C",[23],26.1%
same,"viability, T/C",[24],25.1%
